# Measurements: US11963962B2, “Platelet count-agnostic methods of treating myelofibrosis” (Sierra Oncology, Inc., priority 2018, dated 2024)
# Read-outs that look alike come from different tables or passages of the source. Marks after values point to notes of the source that are not given here.
# Columns and labels:
# myelofibrosis [1] = assay: SIMPLIFY-1 Phase 3 trial: transfusion independence and TD to TI conversion; assay type: in vivo, human; conditions: SIMPLIFY 1
# Source text: The improved outcome from MMB therapy that results from practicing the subject methods can be manifested as an improvement in one or more clinical endpoints (e.g., as described herein), such as anemia response, in spleen response and/or symptom response. By “anemia response” is meant an increase in the patient's hemoglobin level or a patient who was transfusion dependent becoming transfusion independent. Desirably, a minimum increase in hemoglobin of 0.5 g/dL, such as 1.0 g/dL 1.5 g/dL or 2.0 g/dL lasting a minimum of 8 weeks is achieved, which is the level of improvement specified in the International Working Group (IWG) consensus criteria. However, smaller, but still medically significant, increases in hemoglobin are also considered to be within the term “anemia response”. “Transfusion independence” is an anemia endpoint and refers to a subject who required no RBC transfusions over a 12 week period and had no hemoglobin levels less than 8 g/dL to 8.5 g/dL over the 12 week period. In some embodiments, the 12 week period of transfusion independence is the terminal 12 weeks of a 24 week study period. By red blood cell (RBC) transfusion independence rate at week 24 of a study is meant the proportion of subjects who were transfusion independent at week 24, excluding cases associated with clinically overt bleeding.
# (§1) In the SIMPLIFY-1 trial (NCT01969838), the efficacy and safety of MMB versus ruxolitinib (RUX) was studied in patients with myelofibrosis who were naïve to treatment with a JAK inhibitor and a platelet count of ≥50×10^9/L. Patients (N=432) with high risk or intermediate-2 risk or symptomatic intermediate-1 risk myelofibrosis received 24 weeks of treatment with 200 mg MMB once daily or 20 mg RUX twice a day (or per label), after which all patients could receive open-label momelotinib. […] The primary endpoint was a reduction by at least 35% in the spleen volume at 24 weeks compared with baseline.
# (§2) FIG. 8A: SIMPLIFY-1 study of MMB in a first line population previously untreated with JAKi. For SIMPLIFY-1, the goal was non-inferiority over ruxolitinib (RUX) (MMB: N=215 subjects, and RUX: N=217 subjects). FIG. 8B: SIMPLIFY-2 study of second line population of anemic or thrombocytopenic subjects previously treated with RUX (red blood cell (RBC) transfusions on RUX=64%. RUX dose adjustment for: thrombocytopenia=21%; anemia/hematoma=35%). For SIMPLIFY-2, the goal was superiority over best available treatment (BAT) (MMB: N=104 subjects, and BAT: N=52 subjects). In both SIMPLIFY-1 and SIMPLIFY: Primary endpoint: >=35% reduction in spleen volume at 24 weeks. Secondary endpoints: Total symptom score (TSS) response at 24 weeks. Effects on RBC transfusion requirements.
# (§3) The SIMPLIFY 1 clinical trial data was reanalyzed for subgroups of subjects having particular baseline platelet counts in the MMB versus RUX arms of the study.
# (§4) Patient data was analyzed according to the following baseline platelet count (PLT) subgroups and in particular according to the threshold PLT of 150×10^9/L: 1) PLT<50×10^9/L; 2) 50×10^9/L≤PLT<100×10^9/L; 3) 100×10^9/L≤PLT<150×10^9/L. The reanalyzed data is presented in Table 13 (SIMPLIFY 1). Selected data is also illustrated in the following figures.
# myelofibrosis [2] = assay: SIMPLIFY-1 Phase 3 trial: splenic response rate (SRR); assay type: in vivo, human; conditions: SIMPLIFY 1, week 24
# Procedure: as §1, §2, §3, §4
# myelofibrosis [3] = assay: SIMPLIFY-1 Phase 3 trial: safety (anemia, platelet counts, hemoglobin); assay type: in vivo, human
# Procedure: as §1
# The mean platelet count for RUX patients is demonstrably lower than the mean platelet count for MMB patients.
# The MMB subjects were thus at lower risk of developing thrombocytopenia (e.g., Grade 3 or 4 thrombocytopenia), or of having to undergo undesirable dose reduction because they were able to largely maintain their platelet counts during therapy.
# myelofibrosis [4] = conditions: cited from earlier work
# myelofibrosis [5] = assay: SIMPLIFY-1 Phase 3 trial: total symptom score (TSS) response at week 24; assay type: in vivo, human; conditions: for TSS response rate: SIMPLIFY 1, week 24
# Procedure: as §1, §2, §3, §4
# myelofibrosis [6] = assay: SIMPLIFY-1 dynamic and time-to-event analyses of RBC transfusions; assay type: in vivo, human; conditions: SIMPLIFY-1, 24 week randomized treatment period
# Source text: The SIMPLIFY-1 (S1) trial, a double-blind, active-controlled Phase 3 study in which 432 patients received randomized treatment with MMB or RUX for 24 weeks was previously reported (Mesa R A, Kiladjian J J, Catalano J V. et al. “Simplify-1: A phase III randomized trial of momelotinib versus ruxolitinib in j anus kinase inhibitor—naïve patients with myelofibrosis”, Journal of Clinical Oncology, 2017; 35:3844-50).
# Since transfusion burden is of significant concern to clinicians and patients, to better understand the dynamics of RBC transfusions we further examined the S1 data through statistical models utilizing a variety of novel anemia benefit endpoints including time until transfusion and overall intensity of transfusions across time. The proportions of patients with 0 and 4 transfusions were calculated and time-to-event analyses examining time-to-first and time-to-fifth units transfused also conducted. Since transfusions typically comprise 2 units, the fifth unit transfused represents a de facto third transfusion event. The number of units transfused were also considered to be recurrent events and examined with and without patients' baseline characteristics as covariates. Finally, a mixture model, based on a zero-inflated negative binomial (ZINB) distribution fit to the transfusion data, was employed to compare between the treatment groups the proportions of subjects with zero transfusion burden and the mean transfusion rates.
# [7] = ITT, platelets 50-100 (subgroup 2)
# [8] = ITT, platelets 100-150 (subgroup 3)
# [9] = baseline TSS ≥ 6, platelets 50-100 (subgroup 2)
# [10] = baseline TSS ≥ 6, platelets 100-150 (subgroup 3)
# [11] = baseline TSS ≥ 10, all patients
# [12] = baseline TSS ≥ 10, platelets 50-100 (subgroup 2)
# [13] = baseline TSS ≥ 10, platelets 100-150 (subgroup 3)
smiles,measurement,setting,value
"N#CC[C@H](C1CCCC1)n1cc(-c2ncnc3[nH]ccc23)cn1 [RUX, ruxolitinib, reference compound]",patients with transfusion independence promoted and maintained (TI rate),myelofibrosis [1],49%
same,Week 24 TI rate,"myelofibrosis [1]; ITT, all patients",49%
same,Week 24 TI rate,myelofibrosis [1]; [7],39%
same,Week 24 TI rate,myelofibrosis [1]; [8],45%*
same,Week 24 TI rate,"myelofibrosis [1]; baseline TSS ≥ 6, all patients",48%
same,Week 24 TI rate,myelofibrosis [1]; [9],36%
same,Week 24 TI rate,myelofibrosis [1]; [10],41%
same,Week 24 TI rate,myelofibrosis [1]; [11],51%
same,Week 24 TI rate,myelofibrosis [1]; [12],32%
same,Week 24 TI rate,myelofibrosis [1]; [13],45%*
same,SRR,"myelofibrosis [2]; ITT, all patients",29%
same,SRR,myelofibrosis [2]; [7],0%
same,SRR,myelofibrosis [2]; [8],6%
same,SRR,"myelofibrosis [2]; baseline TSS ≥ 6, all patients",29%
same,SRR,myelofibrosis [2]; [9],0%
same,SRR,myelofibrosis [2]; [10],7%
same,SRR,myelofibrosis [2]; [11],29%
same,SRR,myelofibrosis [2]; [12],0%
same,SRR,myelofibrosis [2]; [13],5%
same,anemia rate,myelofibrosis [3]; SIMPLIFY 1,38%
same,≥Grade 3 anemia rate,myelofibrosis [3]; SIMPLIFY 1,23%
same,platelet counts during treatment,"myelofibrosis [3]; SIMPLIFY 1, 24 week double blind phase, FIGS. 31-33",significant reductions in platelet counts from baseline
same,median time to recovery of platelet counts above 50×10^9/L,myelofibrosis [4]; after dose reduction or dose interruption,14 days
same,median time to onset of thrombocytopenia,myelofibrosis [4]; patients who developed Grade 3 or 4 thrombocytopenia,approximately 8 weeks
same,frequency of Grade 3 or 4 thrombocytopenia,myelofibrosis [4]; patients with a platelet count of 100×10^9 to 200×10^9/L before starting ruxolitinib,17%
same,frequency of Grade 3 or 4 thrombocytopenia,myelofibrosis [4]; patients with an entry platelet count greater than 200×10^9/L,7%
same,TSS response rate,"myelofibrosis [5]; ITT, all patients",41%
same,TSS response rate,myelofibrosis [5]; [7],22%
same,TSS response rate,myelofibrosis [5]; [8],39%*
same,TSS response rate,"myelofibrosis [5]; baseline TSS ≥ 6, all patients",42%
same,TSS response rate,myelofibrosis [5]; [9],23%
same,TSS response rate,myelofibrosis [5]; [10],33%
same,TSS response rate,myelofibrosis [5]; [11],43%
same,TSS response rate,myelofibrosis [5]; [12],21%
same,TSS response rate,myelofibrosis [5]; [13],35%
same,Total Symptom Score (TSS) response,"myelofibrosis [5]; SIMPLIFY-1, overall",42.2%
same,Kaplan-Meier estimate of the proportion of patients who did not require any units transfused,myelofibrosis [6],46%
same,proportion of patients requiring 4 or fewer units,myelofibrosis [6],62%
